Test results taken from paper PMC2880888 (Journal of medicinal chemistry, 2010).

Tests used:
[1] = stability of the C-O-P bond in aqueous medium at pH 1.5; type: physicochemical; conditions: aqueous medium at pH 1.5, over 24 h
[2] = hydrolysis of the 5’-phosphate in the presence of mammalian cell membranes; type: in vitro ADME; conditions: incubation at 37°C with 1321N1 astrocytoma cell membranes (data not shown)
[3] = system: aorta ring preparations; conditions: cited from earlier work
[4] = system: CSQ-overexpressing mouse; conditions: Alzet mini-osmotic pump; cited from earlier work
[5] = system: cardiac P2X receptor; conditions: cited from earlier work
[6] = system: control 1321N1 astrocytoma cells; test: calcium flux in control 1321N1 astrocytoma cells; type: cell-based, human; conditions: 10 µM, non-transfected 1321N1 astrocytoma cells

Nc1nc(Cl)nc2c1ncn2[C@H]1[C@H](O)[C@H](O)[C@@]2(COP(=O)(O)O)C[C@H]12 [Compound 3, (1’S,2’R,3’S,4’R,5’S)-4-(6-amino-2-chloro-9H-purin-9-yl)-1-[phosphoryloxymethyl] bicyclo[3.1.0]hexane-2,3-diol]
stability of the C-O-P bond [1]: stable
hydrolysis of the 5’-phosphate [2]: considerable hydrolysis
vasodilator action [3]: devoid of any vasodilator action
longevity compared to vehicle-injected mice [4]: significantly increased longevity
current induced in the CSQ myocyte ([5]; CSQ myocyte): induced a current

CNc1nc(I)nc2c1ncn2[C@H]1C[C@H](OP(=O)(O)O)[C@]2(COP(=O)(O)O)C[C@H]12 [MRS2500]
block of the membrane current evoked by 3 ([5]; voltage clamp in mouse cardiac myocytes): could not block

CSc1nc(N)c2ncn([C@@H]3O[C@H](COP(=O)(O)OP(=O)(O)O)[C@@H](O)[C@H]3O)c2n1 [Compound 2-MeSADP, 2-MeSADP]
change in intracellular Ca2+ in control cells [6]: no change
